Assay results: US20060135494A1, “Methods of treating injuries of the nervous system associated with hemorrhage” (priority 2002, published 2006)

Key:
[1] = tested on: traumatic brain injury (blunt head trauma); experiment: TUNEL-positive cells in blunt head trauma rat model; assay type: in vivo
Description: UDCA and TUDCA are nontoxic, endogenously produced, bile acids that act both in vitro and in vivo as potent anti-apoptotic agents. In addition to their effects at preventing mitochondrial dysfunction by inhibiting membrane depolarization and channel formation (Rodrigues et al., J Clin Invest 1998;101:2790-2799 and Rodrigues et al., Cell Death Differ 1999;6:842-854), these molecules may also play key regulatory roles in signal transduction pathways by modulating cytosolic calcium levels and in gene expression by regulating transcription (Guicciari et al., Hepatology 2002;35:971-973). […] Administration of TUDCA almost completely abolished the appearance of TUNEL-positive cells, the activation of caspase-3-like proteases, and the histological damage of the peri-ICH region. These findings are consistent with the inhibition of neuronal apoptosis by TUDCA. Further, most neurons can be rescued by TUDCA up to 3 hours, and some up to 6 hours, from the onset of the hemorrhage, consistent with a delayed activation of neuronal cell death. Thus, at least in this model, many cells remain viable for several hours and can be recovered by an anti-apoptotic agent, provided therapy is initiated within this time window. Finally, TUDCA was also markedly effective at reducing apoptosis after brain injury in a blunt head trauma rat model. […]

[2] = tested on: TUNEL-positive (apoptotic) cells in hemisphere ipsilateral to ICH; experiment: TUNEL staining of apoptotic cells in ICH rat brain; assay type: in vivo
Description: All animals received humane care in compliance with the institute's guidelines as outlined in “Guide for the Care and Use of Laboratory Animals” prepared by the National Academy of Sciences and published by the National Institutes of Health (NIH publication no. 86-23, revised 1985). Female Sprague-Dawley rats (250-300 grams (g); Harlan Sprague-Dawley, Inc., Indianapolis, Ind.) were anesthesized with an intramuscular injection of a mixture of ketamine and xylazine and set in supine in a Kopf headholder. The right carotid artery, external and internal branches, was exposed and the distal end of the external carotid freed and retracted to line with the internal carotid. A PE-10 polyethylene tube (Becton-Dickinson, Sparks, Md.) was then introduced from the external into the internal carotid artery, and the former was ligated to hold the tube. TUDCA (Calbiochem-Novabiochem Corp., San Diego, Calif.) was dissolved in phosphate buffer, pH 7.4 at 400 milligrams per milliliter (mg/ml). Saline or TUDCA solution (1 milliliter per kilogram body weight (ml/kg bw)) were injected directly into the internal carotid artery, within 5 minutes. Different concentrations of TUDCA (10, 50, 100, and 200 mg/kg bw) were administered 1 hour prior to, or 1, 3, and 6 hours after collagenase injection. The polyethylene tube was finally removed, the end of the external carotid artery cauterized, and the wound closed. To induce stroke injury, the animals were placed in a stereotaxic apparatus and ICH induced by collagenase infusion (Rosenberg et al., Stroke 1990;21:801-807 and Chesney et al., Stroke 1995;26:312-316). In brief, a midline incision was made through the scalp to expose the skull. […]
At 2 days after collagenase infusion, rats were sacrificed for terminal deoxynucleotidyltransferase-mediated dUTP nick end labeling (TUNEL) of apoptotic cells. […] The number of TUNEL-positive cells was counted on a computer screen grid from at least three random fields (400×) within the region adjacent to the hemorrhagic core for each animal.

collagenase-induced ICH = experiment: Neurological testing: apomorphine-induced rotational behavior after ICH; assay type: in vivo, rat; conditions: 2 days after ICH; vehicle approximately 20
Description: All animals received humane care in compliance with the institute's guidelines as outlined in “Guide for the Care and Use of Laboratory Animals” prepared by the National Academy of Sciences and published by the National Institutes of Health (NIH publication no. 86-23, revised 1985). Female Sprague-Dawley rats (250-300 grams (g); Harlan Sprague-Dawley, Inc., Indianapolis, Ind.) were anesthesized with an intramuscular injection of a mixture of ketamine and xylazine and set in supine in a Kopf headholder. The right carotid artery, external and internal branches, was exposed and the distal end of the external carotid freed and retracted to line with the internal carotid. A PE-10 polyethylene tube (Becton-Dickinson, Sparks, Md.) was then introduced from the external into the internal carotid artery, and the former was ligated to hold the tube. […]
The animals were tested for rotational behavior in response to apomorphine 2 days after surgery. Apomorphine (1 mg/kg bw; Sigma Chemical Co.) was injected subcutaneously, and rotations were determined by a computer-controlled Columbus Instruments Videomex-V system (Columbus, Ohio). […] Step initiation was assessed at 2 days after ICH by independently analyzing stepping behavior in the left and right forelimbs. […] The number of steps initiated by each limb was counted during a 1-minute period.

With `C[C@H](CCC(=O)NCCS(=O)(=O)O)[C@H]1CC[C@H]2[C@@H]3[C@@H](O)C[C@@H]4C[C@H](O)CC[C@]4(C)[C@H]3CC[C@]12C` [TUDCA, tauroursodeoxycholic acid] the reduction of apoptosis ([1]; 24-h pre-injury treatment plus treatments at head trauma and 24 h later) was “more than 50%”, the “number of TUNEL-positive cells per high power field” value ([1]; 24-h pre-injury treatment plus two post-injury treatments, vehicle approximately 27) was 12 and the “number of apoptotic cells (apoptotic versus total cells)” value ([2]; 100 mg/kg bw TUDCA 1 hour before collagenase, ipsilateral hemisphere, vehicle almost 30%) was “approximately 10%”. For the same compound, the “TUNEL staining versus vehicle-injected animals” value ([2]; 100 mg/kg bw TUDCA, time-course 1 hour before to 6 hours after collagenase) was “remained markedly lower”, the reduction of apoptosis ([2]; TUDCA at greater dosages (than 100 mg/kg bw), 1 hour before collagenase) was > 65% and the “rotational response to apomorphine” value (collagenase-induced ICH) was “less than 10 per 5 minutes”.
